Where a name gives a salt, the structure may show the parent alone. Read-outs that look alike come from different tables or passages of the source.
Assay: Rat oral pharmacokinetics (plasma eicosapentaenoic acid after oral gavage)
Format: in vivo
Details: Sprague-Dawley rats, oral gavage 40 mg/kg in 0.5% carboxymethyl cellulose, analyte EPA in plasma, mean of 6 rats
Procedure: Oral pharmacokinetic parameters of piperazine di-eicosapentaenoate, prepared by the procedure described in Example 2, were determined in Sprague-Dawley rats. Piperazine di-eicosapentaenoate was administered by oral gavage as an aqueous solution in 0.5% carboxymethyl cellulose to 6 Sprague-Dawley rats, 3 males and 3 females. Rats were dosed at 40 mg/kg. Blood samples were obtained from each rat by jugular vein catheter. […] Blood samples were centrifuged to separate red blood cells and the resulting plasma samples were analyzed for eicosapentaenoic acid. Calculated pharmacokinetic parameters shown below in Table 1 are mean values from 6 rats. […] Rats were dosed at 40 mg/kg. Blood samples were obtained from each rat by jugular vein catheter. […] Blood samples were centrifuged to separate red blood cells and the resulting plasma samples were analyzed for eicosapentaenoic acid. Calculated pharmacokinetic parameters shown below (Table 2) are mean values from 6 rats.

Row | Compound | AUC (0-24) (0-24 h) [µg·h/mL] | Cmax [ng/mL] | Tmax [h] | AUC(0-t) (both sexes, rat, 0-24 h) [µg·h/mL] | Cmax (both sexes, rat, read-out: Cmax) [ng/mL] | Tmax (both sexes, rat, read-out: Tmax) [h]
1 | CC/C=C\C/C=C\C/C=C\C/C=C\C/C=C\CCCC(=O)O.CC/C=C\C/C=C\C/C=C\C/C=C\C/C=C\CCCC(=O)O.NCCN [Ethylene diamine di-eicosapentaenoate, Ethane-1,2-diaminium di[(5Z,8Z,11Z,14Z,17Z)-icosa-5,8,11,14,17-pentaenoate]] | 275.29 | 18370 | 2.0 |  |  | 
2 | CC/C=C\C/C=C\C/C=C\C/C=C\C/C=C\CCCC(=O)O [Piperazine di-eicosapentaenoate, Bis[(5Z,8Z,11Z,14Z,17Z)-icosa-5,8,11,14,17-pentaenoatel Piperazine Salt] |  |  |  | 135 | 28200 | 1

— patent US20140148464A1, “SALT FORMS OF FATTY ACIDS FOR THE TREATMENT OF DRY EYE” (Thetis Pharmaceuticals LLC, priority 2012, published 2014)
